Results taken from a melting point compilation (Tetko et al.).

SMILES	melting point
Cc1cc(C)c([N+](=O)[O-])c(F)c1	56 °C
CC(C)(c1ccccc1)c1ccccc1	29 °C
O=C(O)c1ccc(-c2ccc([N+](=O)[O-])cc2)o1	255 to 257 °C
Nc1cc2ccccc2c(Br)n1	144 to 146 °C
CCC1CC(NC(C)=O)CC(C)(C)N1O (configuration not stated)	142 to 145 °C
COc1cc(N)ncn1	100 °C
S=c1sc2nc3ccccc3nc2s1	180 °C
CCCC(CC)C1(CC)C(=O)NC(=O)NC1=O (configuration not stated)	122 °C
CCOc1cc2c(cc1OCC)C(CC#N)NCC2 (configuration not stated)	99 to 102 °C
COC(=O)C1(S(=O)(=O)c2ccc(Cl)cc2)CCC1	76.2 °C
COc1ccccc1OC(C)=O	31.5 °C
FC(F)(F)c1ccccc1-n1cc[nH]c1=S	236 to 238 °C
CC(=O)OC1(C(C)=O)CCC2C3C=C(Cl)C4=CC(=O)C=CC4(C)C3CCC21C (configuration not stated)	168 °C
CCCCOC(=O)CCC(=O)OCCCC	-29.2 °C
Cc1ccnc(Cl)n1	47 °C
C(=C\c1nn2c(COc3ccccc3)nnc2s1)/c1ccccc1	141 to 143 °C
C(#CP(c1ccccc1)c1ccccc1)P(c1ccccc1)c1ccccc1	86 °C
CC(=O)Oc1ccc(OC(C)=O)c2ccccc12	124 °C
OCc1cccnc1N1CCOCC1	80 to 83 °C
O=C1CCc2ccc(O)cc2N1	232 °C
NC(=O)OCCCc1ccccc1	102 °C
CC(=O)Nc1cccnc1	131 to 133 °C

SMILES	melting point
CC12CCC(C(=CC(=O)O)C1=O)C2(C)C (configuration not stated)	106 °C
COC(=O)c1ccc(OC)c(Br)c1	97 °C
Cc1ccccc1N(C)C	-60 °C
CC(=O)c1cc2cc(Br)ccc2o1	111 °C
O=C(O)CCCCCCCCCCCCCCCCCCCCC(=O)O	125 to 127 °C
O=C(O)c1ccc(-n2ccc(C(F)(F)F)n2)cc1	189 to 190 °C
COC(=O)c1sc(N(C)C)c(C#N)c1N	240 to 243 °C
O=C(O)c1cc2cc(Br)ccc2oc1=O	195 °C
Cc1nc2ccccc2o1	9.5 °C
O=C(O)c1ccc2ncccc2c1	293 to 294 °C
O=Nc1ccc(C(=O)OC2Cc3ccccc32)cc1 (configuration not stated)	119 °C
CC(C)NC(=O)CN1CCNCC1	82 to 88 °C
CCOC(=O)c1cc2cc3cc(C(=O)OCC)c(C)nc3cc2nc1C	167 °C
Cc1ccc2c(c1)OC(C)(c1ccc(C)cc1OC(=O)c1ccccc1)CC2(C)C (configuration not stated)	149 °C
COc1ccc(S(=O)(=O)c2coc(S(N)(=O)=O)c2)cc1	118 °C
O=C(O)c1cc(-c2ccc(Cl)cc2)oc1C(F)(F)F	192 to 193 °C
CCCCCCCCCCCc1ccccc1	-5 °C
O=Cc1ccc(O)c(F)c1	123 °C
Nc1cc(Cl)c(Cl)cc1N	162 to 163 °C
CC(C)n1c(C(F)(F)F)nc2cc(C(=O)Cl)ccc21	102 °C
Cc1ccccc1N1CSc2nnc(-c3ccccc3)n2C1	199 °C
CC12Cc3nonc3CC1CCC1C2CCC2(C)C1CCC2(C)O (configuration not stated)	152 °C

SMILES	melting point
CC12CCC(C(COC=O)C1=O)C2(C)C (configuration not stated)	74 °C
Nc1nn2c(-c3ccccc3)cc(=O)[nH]c2c1/N=N/c1ccc(Cl)cc1	312 °C
CC1CN2CC(=O)Nc3ccc(Cl)cc3C2(c2ccccc2)O1 (configuration not stated)	186 °C
O=[N+]([O-])c1cc(Cl)c(O)c(Cl)c1	127 °C
CCCCOCCOCCOCCCC	-60 °C
CC12C=CC(CC1)C2(C)C (configuration not stated)	113 °C
COc1cccc2cccnc12	49.5 °C
COc1ccc(OC)c2ccccc12	85 to 86 °C
c1ccc2c(c1)ccc1[nH]c3ccc4ccccc4c3c12	158 °C
CC(=O)c1ccc(Cl)c([N+](=O)[O-])c1	98 °C
CC(C)[C@H]1NC(=O)CNC1=O	250 to 260 °C
CN1CC(C(=O)O)CC1=O (configuration not stated)	152 °C
Cc1cc(C#N)ccc1F	55 °C
N#Cc1c(F)c(F)c(C#N)c(F)c1F	198 °C
CCCCSCCC(N)C(=O)O (racemic)	238 to 243 °C
CC(C)(C(=O)O)C(F)(F)F	70 °C
O=S1(=O)Cc2ccccc2C1	151 to 152 °C
CC(C)(C)c1cc(Br)cc(C(C)(C)C)c1O	83 °C
CCOc1ccc(-c2nnc3n2NC(c2ccc(Cl)cc2)S3)cc1 (configuration not stated)	109 °C
CC1(CO)CN(c2ccccc2)NC1=O (configuration not stated)	125 °C
O=[N+]([O-])c1cccc2c(Br)n[nH]c12	175 to 185 °C
OCc1csc2ccc(Cl)cc12	93 to 94 °C

SMILES	melting point
NCc1ccccc1Sc1ccccc1CO	97 °C
CC(C)(C)OC(=O)NC(CC(N)=O)C(=O)O (configuration not stated)	179 to 182 °C
O=C1CN(N=Cc2ccc(-c3ccc([N+](=O)[O-])cc3)o2)C(=O)N1	280 °C
BrC1(c2ccccc2)c2ccccc2-c2ccccc21	97 °C
O=C1NCCN1CCO	49 °C
CCCCCC(=O)OCC	-67 °C
CC1(C)C(C=C(Cl)Cl)C1C(=O)OCc1c(F)c(F)cc(F)c1F (configuration not stated)	32 °C
OCc1ccc(-c2cncnc2)cc1	127 to 130 °C
CC1(C)CC(=O)c2c(C(=O)c3cccs3)noc2C1	131 °C
CSc1[nH]nc(N)c1C#N	190 °C
COc1ccc(-c2csc(/C(C#N)=N\Nc3ccc(C)cc3)n2)cc1	151 °C
COc1ccc(C=C(C(=O)O)C(=Cc2ccc(OC)c(OC)c2)C(=O)O)cc1OC	224 °C
O=[N+]([O-])c1ccc(C=Cc2ccc([N+](=O)[O-])cc2S(=O)(=O)Oc2ccccc2)c(S(=O)(=O)Oc2ccccc2)c1	192 °C
O=[N+]([O-])c1ccc(C2Nn3c(nnc3-c3cccc([N+](=O)[O-])c3)S2)cc1 (configuration not stated)	205 °C
CCOC(=O)C1=C(C)NC(C)=C(C(=O)OCC)C1c1ccccc1	157 °C
CC1(C)OC(C)(C(O)(Cc2ccccc2)Cc2ccccc2)CCC1C(=O)O (configuration not stated)	137 to 138 °C
CCCC(=O)c1cc(O)c(O)cc1O	154 °C
NCCCCC(=O)O	158 to 161 °C
CCOC(=O)c1cnc2cc(-c3cccs3)nn2c1C	151 to 153 °C
CCOC(=O)c1[nH]c(C)c(Br)c1C	142 °C
Nc1c(Br)cc(Br)cc1C=O	136 to 139 °C
CC(=O)/C=C/c1cc(N(C)C)ccc1Cc1ccc(N(C)C)cc1I	164 °C

SMILES	melting point
Cc1cc(C)ncn1	25 °C
CC1(C)OC(C)(C(OC(=O)c2ccc(Br)cc2)C2CCCCC2)CCC1C(=O)O (configuration not stated)	111 °C
C(#Cc1ccc(C#Cc2ccccc2)cc1)c1ccccc1	177 °C
O=C(O)[C@H]1COCN1C(=O)OCc1ccccc1	70 to 74 °C
CC(C)C1(C)N=C(c2nc3ccccc3cc2C(=O)O)NC1=O (configuration not stated)	224 °C
O=C(Cl)c1ccc2c(c1)OCCO2	100 to 101 °C
Cc1cc(O)cc(C)c1C	106 °C
NC(CCS(=O)(=O)O)C(=O)O (racemic)	273 °C
Cc1ccc(N)c(C(=O)NN)c1	133 to 134 °C
CCOC(=O)c1ccccc1	-34 °C
NC(=NO)c1ccc(Oc2ccc(F)cc2F)c([N+](=O)[O-])c1	164 to 167 °C
Cc1cc(C)c(N=C=S)cc1C	22 to 24 °C
CCOCCOC(=O)c1ccccc1C(=O)OCCOCC	34 °C
O=C(O)c1ccc(F)cc1O	191 °C
O=C(O)COc1cccc([N+](=O)[O-])c1	156 to 161 °C
ON=Cc1ccc[nH]1	165 °C
CSc1ccc(S)cc1	13 °C
O=C(O)CCc1ccccc1Cl	95.5 °C
Oc1cccc2c1CCCC2O (configuration not stated)	132 to 134 °C
Clc1cc(Cl)c2cc(Cl)cc(Cl)c2c1	180 °C
ClC1=C(Cl)C2(Cl)C(CBr)CC1(Cl)C2(Cl)Cl (configuration not stated)	77 °C
O=C1C2CC3CC(C2)CC1C3	286 °C

SMILES	melting point
O=C=Nc1ccc(I)cc1	45 °C
NS(=O)(=O)c1ccc(SCCO)c(F)c1	110 °C
O=Cc1c(F)c(F)c(F)c(F)c1F	25.5 °C
CC(CCc1ccccc1)NC(C)C(O)c1ccc(O)cc1 (configuration not stated)	112 °C
CCS(N)(=O)=O	60 °C
CCCCC(C(N)=O)n1nc2ccccc2n1 (configuration not stated)	102 °C
NNC(=S)NC1CCCCC1	142 to 145 °C
Cc1ccc2oc(C(=O)O)cc(=O)c2c1	267 to 270 °C
CN1CCC23c4c5ccc(O)c4OC2C(=O)CCC3C1C5 (configuration not stated)	266 °C
Nc1cc(Br)cnc1N	160 to 165 °C
CCOC(=O)C(C#N)=Cc1ccc(-c2ccccc2OC)o1	120 to 121 °C
C/C(Cl)=C/C(=O)O	61 °C
O=[N+]([O-])c1cccnc1Oc1ccc(F)cc1	98 to 99 °C
NS(=O)(=O)c1ccc(F)c(Cl)c1	109 °C
N#CCc1ccc(OS(=O)(=O)c2cc(Cl)cc(Cl)c2)cc1	81 to 83 °C
N#Cc1cccc(Cn2cncn2)c1	91 to 92 °C
Cc1cccc(NC(N)=O)c1	138 to 143 °C
O=C(Oc1c(F)c(F)c(F)c(F)c1F)Oc1c(F)c(F)c(F)c(F)c1F	48 to 51 °C
O=C(O)c1ccnc(N2CCCC2)c1	211 to 212 °C
NNc1nc(-c2ccccc2)c2c(N)n[nH]c2n1	241 to 244 °C
CC(=O)NC1C2CCC(C)(C1NC(C)=O)C2(C)C (configuration not stated)	309 °C
COc1ccc(C=C(C(=O)O)C(=Cc2ccc(OC)cc2)C(=O)O)cc1	263 °C
